PubChem BioAssay AID179 (DTP/NCI, 2004)
Active and inactive are the calls of the source.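 The calls were made as follows: active = compounds giving half or more protection of infected cells from virus-caused growth loss, again on retest; inactive = the rest.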

Test system: CEM cells HIV-1 protection, formazan growth assay
Assay: NCI AIDS Antiviral Assay
Conditions: for IC50: measured here: growth of uninfected CEM cells
Outline: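 Human CEM cells, uninfected and HIV-1-infected, received five drug concentrations, and growth was read by soluble formazan assay. Compounds giving at least 50% protection were retested; reproducible 100% protection defined confirmed active.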

**Q.** For `O=C(O)CCCCCCCCCCCCl`, which EC50 is on record?
**A.** > 200 µM

**Q.** And the IC50?
**A.** 91.2 µM

**Q.** Which EC50 does the source give for `CCOC(=O)C(C)(C)Oc1ccc2c(-c3ccccc3)cc(=O)oc2c1` here?
**A.** > 20.4 µM

**Q.** And the IC50?
**A.** > 20.4 µM

**Q.** Which results are given for `Cc1cc(C)c(SSc2c(C)cc(C)cc2C)c(C)c1`?
**A.** EC50: > 200 µM; IC50: 28.2 µM

**Q.** How did the EC50 turn out when `COc1cc(C2c3cc4c(cc3OC(NNc3ccccc3)C2C)OCO4)cc(OC)c1OC` (stereo not given) was run?
**A.** > 200 µM

**Q.** What about the IC50 of the same compound?
**A.** 3.89 µM

**Q.** What does the source list for `Cc1cc(=O)oc2cc(OCC(O)COC(C)C)ccc12` (stereo not given)?
**A.** EC50: > 200 µM; IC50: 129 µM

**Q.** Which results are given for `O=C(Nc1ccccc1C(=O)O)C(=O)C(C(=O)c1ccccc1-c1ccccc1)C1OC(=O)c2ccccc21` (stereo not given)?
**A.** EC50: > 50.1 µM; IC50: 25.1 µM

**Q.** `CCCCN1C(=O)[C@](O)(NC(C)=O)[C@H]1COC(C)(C)C` was tested. Which EC50 did it give?
**A.** > 43.7 µM

**Q.** What about the IC50 of the same compound?
**A.** > 43.7 µM

**Q.** Which results are given for `Clc1cccc2[nH]c(-c3ccncc3)nc12`?
**A.** EC50: > 200 µM; IC50: > 200 µM

**Q.** Which EC50 does the source give for `CCOC(=O)C1SC(=Nc2cccc(Cl)c2C)N=C1C` (stereo not given) here?
**A.** 6.03 µM

**Q.** And the IC50?
**A.** 60.3 µM

**Q.** `COc1cc(/C=C\c2ccc(SC)cc2)cc(OC)c1OC` was tested. Which EC50 did it give?
**A.** > 42.7 µM

**Q.** What about the IC50 of the same compound?
**A.** 0.0724 µM

**Q.** With `COc1ccccc1S(=O)Nc1ccccc1` (stereo not given) as the compound, how does the EC50 read?
**A.** > 200 µM

**Q.** What about the IC50 of the same compound?
**A.** > 200 µM

**Q.** For `Nc1ncnc2nc(CO)[nH]c12`, which EC50 is on record?
**A.** > 158 µM

**Q.** What about the IC50 of the same compound?
**A.** > 158 µM

**Q.** Which EC50 does the source give for `CSCS(=O)C[C@H](CO)NC(=O)/C=C/c1c(C)[nH]c(=O)[nH]c1=O` (stereo not given in full) here?
**A.** > 692 µM

**Q.** What about the IC50 of the same compound?
**A.** 0.447 µM

**Q.** With `O=C1C(c2ccc([N+](=O)[O-])cc2)=C(Cl)C(=O)c2c(O)cccc21` as the compound, how does the EC50 read?
**A.** > 398 µM

**Q.** And the IC50?
**A.** 8.71 µM

**Q.** Which outcome does the source give for `COC(=O)C12C3C=CC(O3)C1C1C=CC2O1` (stereo not given) here?
**A.** inactive

**Q.** Which outcome does the source give for `CCOC(=O)NP(=O)(NC(=O)OCC)NC(=O)OCC` here?
**A.** inactive

**Q.** What does the source list for `CCc1nc2ccccn2n1`?
**A.** EC50: > 200 µM; IC50: > 200 µM

**Q.** How did the outcome turn out when `C=CCN(N=O)C(=O)NCCCCC(NC(C)=O)C(=O)NCc1ccccc1` (stereo not given) was run?
**A.** inactive

**Q.** What does the source list for `CC1(C)CC(Br)(Cc2ccccc2)C(=O)c2ccccc21` (stereo not given)?
**A.** EC50: > 200 µM; IC50: 7.94 µM

**Q.** For `O=C1CC23CC4CC(CC(C4)C2O1)C3` (stereo not given), which EC50 is on record?
**A.** > 200 µM

**Q.** And the IC50?
**A.** > 200 µM

**Q.** With `O=C(NNC(=S)Nc1ccccc1)c1cc(-c2ccccc2)nc2ccccc12` as the compound, how does the EC50 read?
**A.** > 200 µM

**Q.** And the IC50?
**A.** 21.9 µM

**Q.** Which results are given for `CCOC(=O)Cc1[nH]c(C(=O)c2ccccc2)cc1C(=O)c1ccccc1`?
**A.** EC50: > 200 µM; IC50: 30.2 µM

**Q.** For `O=C(O)c1sccc1-c1cccc2ccccc12`, which EC50 is on record?
**A.** > 200 µM

**Q.** And the IC50?
**A.** 83.2 µM

**Q.** `NC1(N2SC(S)=C3CCCC=C32)CCCCC1` was tested. Which EC50 did it give?
**A.** 42.7 µM

**Q.** What about the IC50 of the same compound?
**A.** > 200 µM

**Q.** Which results are given for `O=C1C2CC=CCC2C(=O)N1n1c(-c2ccccc2)n[nH]c1=O` (stereo not given)?
**A.** EC50: > 200 µM; IC50: > 200 µM

**Q.** What does the source list for `CC1(C)NC(=S)NC1=O`?
**A.** EC50: > 200 µM; IC50: > 200 µM

**Q.** Which results are given for `N#C/C(=C/NC(=S)Nc1ccccc1)C(N)=O`?
**A.** EC50: > 200 µM; IC50: > 200 µM

**Q.** With `Nc1c(S(=O)(=O)c2ccccc2)c2nc3ccccc3nc2n2c1nc1ccccc12` as the compound, how does the EC50 read?
**A.** > 8.91 µM

**Q.** What about the IC50 of the same compound?
**A.** > 8.91 µM

**Q.** How did the EC50 turn out when `CCOC(=O)/C(=C\c1ccoc1)P(=O)(OCC)OCC` was run?
**A.** > 832 µM

**Q.** And the IC50?
**A.** 30.9 µM

**Q.** For `CN1C2C=CC(=O)C1C1C(=O)N(c3ccccc3)C(=O)C12` (stereo not given), which EC50 is on record?
**A.** > 891 µM

**Q.** What about the IC50 of the same compound?
**A.** 5.25 µM

**Q.** Which EC50 does the source give for `NCCCCNCCCN1CC1` here?
**A.** > 200 µM

**Q.** What about the IC50 of the same compound?
**A.** 0.148 µM

**Q.** Which EC50 does the source give for `CCOC(C)C(/C=N/NC(N)=S)=NNC(N)=S` (stereo not given) here?
**A.** > 20 µM

**Q.** And the IC50?
**A.** 1.86 µM

**Q.** Which results are given for `CC(C)(C)OC(=O)N(CCCCNC(=O)C(F)(F)F)CCCNC(=O)C(F)(F)F`?
**A.** EC50: > 200 µM; IC50: > 200 µM

**Q.** What does the source list for `OCC1(C(F)(F)F)OC(n2cncn2)CC1O` (stereo not given)?
**A.** EC50: > 200 µM; IC50: > 200 µM

**Q.** What does the source list for `Cc1ccc(S(=O)(=O)O/N=C(/CC/C(=N\OS(=O)(=O)c2ccc(C)cc2)c2ccccc2)c2ccccc2)cc1`?
**A.** EC50: > 437 µM; IC50: > 437 µM

**Q.** What does the source list for `COc1ccc(NC(=O)/C(=C/n2c(=S)[nH]c3cc(C)ccc32)C(C)=O)cc1`?
**A.** EC50: > 200 µM; IC50: > 200 µM

**Q.** What does the source list for `CC(C)(C)c1cc(C2COC(c3cc(C(C)(C)C)c(O)c(C(C)(C)C)c3)CO2)cc(C(C)(C)C)c1O` (stereo not given)?
**A.** EC50: > 50.1 µM; IC50: > 50.1 µM

**Q.** `O=c1c(-c2ccc(Cl)cc2)nnc2n(Cc3ccccc3)c3ccccc3n12` was tested. Which EC50 did it give?
**A.** > 200 µM

**Q.** What about the IC50 of the same compound?
**A.** > 200 µM

**Q.** `CC(=O)c1sc(Nc2nnc(-c3ccc(-c4nnc(Nc5nc(C)c(C(C)=O)s5)o4)cc3)o2)nc1C` was tested. Which outcome did it give?
**A.** inactive

**Q.** Which EC50 does the source give for `Cc1nc2ccccc2c(=O)n1NC(=O)c1ccc([N+](=O)[O-])cc1` here?
**A.** > 200 µM

**Q.** And the IC50?
**A.** > 200 µM

**Q.** For `O=C(O)C1C(C(=O)O)C2C=CC1C21CCCC1` (stereo not given), which EC50 is on record?
**A.** > 380 µM

**Q.** And the IC50?
**A.** > 380 µM

**Q.** Which EC50 does the source give for `CCCCNC(=O)CNC(=O)c1ccccc1SC(=O)CCCC[n+]1ccccc1` here?
**A.** > 200 µM

**Q.** And the IC50?
**A.** 9.33 µM
